Measured values published in patent publication US20210346527A1, “Combination Therapy” (Advanced Accelerator Applications (Italy) SRL, priority 2018, published 2021).

Test system: CA20948 Tumor Model (neuroendocrine tumor cells)
Assay: In vivo therapy of PRRT +/- Olaparib, CA20948 tumor model
Design: species or system BALB-c immunocompromised mice
From the text: FIG. 1 : In vivo therapy of PRRT +/− Olaparib. The FIG. 1A presents the tumor volume after injection in the presence of the vehicle (square), olaparib alone (full circle), PRRT alone (empty circle) or in combination with PARP inhibitor (triangle). The survival proportions are also shown in FIG. 1B after injection in the presence of the vehicle, olaparib alone, PRRT alone or in combination with PARP inhibitor.
Combination therapies using CA20948 Tumor Model
We have xenografted BALB-c immunocompromised mice with neuroendocrine tumor cells. To increase the window of opportunity, we have started PARP inhibitor administration two days prior to PRRT injection for in total 14 days.

Molecule	effect on survival (compared to vehicle)	effect on tumor growth (compared to vehicle)	speed of tumor regrowth (PRRT versus PRRT+olaparib groups)	start of tumor shrinkage (after injection, xenografted mice, PARP inhibitor started two days prior to PRRT injection, in total 14 days) [days]
O=C(c1cc(Cc2n[nH]c(=O)c3ccccc23)ccc1F)N1CCN(C(=O)C2CC2)CC1 [olaparib, Olaparib]	No effect	No effect		
Lutetium (177Lu) oxodotreotide [PRRT]			the same in both groups	3
